The text below walks through data of patent US20120214802A1, “PYRROLIDINE COMPOUNDS WHICH INHIBIT BETA-SECRETASE ACTIVITY AND METHODS OF USE THEREOF” (priority 2009, published 2012).

Test [1] concerns the target memapsin 2 (Homo sapiens, UniProt P56817). Description: Inhibition of memapsin 2 beta-secretase activity (fluorogenic substrate FS-2). The format is biochemical. As to conditions: pH 4, 37° C., read-out: M2 Ki. In outline:
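Memapsin 2 pre-incubated with compound for 20 min at pH 4, 37° C. Reaction started with fluorogenic substrate FS-2, […], derived from Swedish-variant APP beta-secretase site; inhibition measured from fluorescence.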

Test [2] deals with T1, memapsin 2 (Cricetulus griseus, UniProt G3IAK4).
T1 construct: endogenous in cells; host or cells: Chinese hamster ovary cells over-expressing human APP695 (London + Swedish)
The test can be described thus: Cellular Aβ IC50 determination (Aβ40 sandwich ELISA). The format is cell-based, Chinese hamster. As to conditions: CHO cells over-expressing human APP695 with London and Swedish mutations, 24 h, read-out: M2 IC50. In outline: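 CHO cells overexpressing human APP695 (London and Swedish mutations) treated 48 h post-seeding with serially diluted compounds (top near 4 μM, 0.4% DMSO), 24 h at 37° C, 5% CO2. Medium Aβ40 measured by sandwich ELISA; levels relative to control fitted to 4-parameter IC50 model.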

Another test addresses cathepsin D (Homo sapiens, UniProt P07339). Description: Inhibition of cathepsin D activity (MALDI-TOF, substrate ELDLAVEFWHDR). The format is biochemical. As to the method:
[The source words this procedure for another target and reports this target under the same test.] (§1) A substrate peptide NH3-ELDLAVEFWHDR-CO2 (SEQ ID NO.: 1) was dissolved at 2 mg/mL in 10% glacial acetic acid and diluted into 0.009M NaOH to obtain μM concentration at pH 4.1. After equilibration at 37 degrees C., the reactions were initiated by the addition of an aliquot of memapsin 2. Aliquots were removed at time intervals, and combined with an equal volume of MALDI-TOF matrix (α-hydroxycinnamic acid in acetone, 20 mg/mL) and immediately spotted in duplicate onto a stainless-steel MALDI sample plate. MALDI-TOF mass spectrometry was performed on a PE Biosystems Voyager DE. The instrument was operated at 25,000 accelerating volts in positive mode with a 150 ns delay. Ions with a mass-to-charge ratio (m/z) were detected in the range of 650-2000 atomic mass units. Data were analyzed by the Voyager Data Explorer module to obtain ion intensity data for mass species of substrates and corresponding products in a given mixture. Relative product formation was calculated as the ratio of signal intensity of the product to the sum of signal intensities of both product and the corresponding substrate. Relative product formed per unit time was obtained from non-linear regression analysis of the data representing the initial 15% formation of product using the model:
where k was the relative hydrolytic rate constant and T was time in seconds. Initial rates were expressed relative to uninhibited controls and fit to a tight-binding model of competitive inhibition as above.

The next test deals with T2, memapsin 1 (Homo sapiens, UniProt Q9Y5Z0).
T2 sequence (Q9Y5Z0 63-518): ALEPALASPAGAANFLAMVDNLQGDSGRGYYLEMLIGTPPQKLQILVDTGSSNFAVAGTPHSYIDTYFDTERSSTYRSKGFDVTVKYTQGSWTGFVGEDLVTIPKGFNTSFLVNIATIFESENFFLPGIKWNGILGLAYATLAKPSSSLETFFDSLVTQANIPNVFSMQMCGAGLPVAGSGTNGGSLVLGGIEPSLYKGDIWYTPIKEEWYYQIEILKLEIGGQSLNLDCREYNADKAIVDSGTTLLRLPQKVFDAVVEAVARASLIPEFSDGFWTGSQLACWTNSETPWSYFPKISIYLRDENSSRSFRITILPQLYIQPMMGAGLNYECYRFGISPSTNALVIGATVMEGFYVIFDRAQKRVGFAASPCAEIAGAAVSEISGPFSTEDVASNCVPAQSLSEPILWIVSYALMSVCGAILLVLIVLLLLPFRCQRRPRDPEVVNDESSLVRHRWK
The test can be described thus: Inhibition of memapsin 1 beta-secretase activity (MALDI-TOF, substrate ELDLAVEFWHDR). The format is biochemical. As to conditions: read-out: M1 Ki. As to the method:
[The source words this procedure for another target and reports this target under the same test.] as §1
where k was the relative hydrolytic rate constant and T was time in seconds. […]

Molecules are shown by their SMILES. Read-outs that look alike come from different tables or passages of the source. Bounds are passed on as bounds.

Sequence of cathepsin D (P07339 65-412, species assumed): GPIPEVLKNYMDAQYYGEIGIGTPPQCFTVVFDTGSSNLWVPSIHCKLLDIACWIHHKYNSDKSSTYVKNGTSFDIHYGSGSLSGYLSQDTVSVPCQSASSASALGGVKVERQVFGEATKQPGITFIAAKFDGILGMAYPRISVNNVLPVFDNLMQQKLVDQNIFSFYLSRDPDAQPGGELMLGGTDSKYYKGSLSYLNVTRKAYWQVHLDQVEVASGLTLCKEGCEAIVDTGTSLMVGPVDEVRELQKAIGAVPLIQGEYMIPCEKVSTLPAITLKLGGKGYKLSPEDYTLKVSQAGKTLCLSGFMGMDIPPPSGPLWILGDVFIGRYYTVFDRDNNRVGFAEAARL
T1 sequence (G3IAK4 22-501): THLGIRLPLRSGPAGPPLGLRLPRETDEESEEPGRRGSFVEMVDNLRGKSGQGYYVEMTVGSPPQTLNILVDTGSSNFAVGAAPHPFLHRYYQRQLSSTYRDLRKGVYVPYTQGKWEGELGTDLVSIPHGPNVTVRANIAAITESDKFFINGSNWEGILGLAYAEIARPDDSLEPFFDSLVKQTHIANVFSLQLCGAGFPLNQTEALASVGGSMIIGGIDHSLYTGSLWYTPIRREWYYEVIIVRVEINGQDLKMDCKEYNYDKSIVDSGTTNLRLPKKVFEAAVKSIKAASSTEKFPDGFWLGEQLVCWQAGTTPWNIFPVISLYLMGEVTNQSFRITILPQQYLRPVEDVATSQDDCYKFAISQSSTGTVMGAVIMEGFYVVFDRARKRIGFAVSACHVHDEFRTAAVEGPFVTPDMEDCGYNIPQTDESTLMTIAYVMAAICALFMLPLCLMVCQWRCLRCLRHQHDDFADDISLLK
Sequence of memapsin 2 (Homo sapiens, UniProt P56817) (P56817 46-501): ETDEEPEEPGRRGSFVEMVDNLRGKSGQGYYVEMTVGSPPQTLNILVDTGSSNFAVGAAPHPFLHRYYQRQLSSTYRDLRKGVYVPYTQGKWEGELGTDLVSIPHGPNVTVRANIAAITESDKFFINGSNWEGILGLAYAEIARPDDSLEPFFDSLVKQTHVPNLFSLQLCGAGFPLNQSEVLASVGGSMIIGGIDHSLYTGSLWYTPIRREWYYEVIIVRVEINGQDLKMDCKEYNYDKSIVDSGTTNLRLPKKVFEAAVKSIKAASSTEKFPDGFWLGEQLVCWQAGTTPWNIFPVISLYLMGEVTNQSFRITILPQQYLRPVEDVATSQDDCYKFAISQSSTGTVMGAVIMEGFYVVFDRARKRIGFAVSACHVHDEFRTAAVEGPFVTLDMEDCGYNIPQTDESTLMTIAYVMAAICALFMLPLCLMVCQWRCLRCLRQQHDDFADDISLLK

Usually Ki stands for a dissociation constant, usually derived from enzyme kinetics or from competition with a known ligand. What is called IC50 is the midpoint of a concentration-inhibition curve. For the compound `Cc1csc([C@H]2CCCN2C(=O)c2cc(C(=O)N[C@@H](Cc3ccccc3)[C@H](O)[C@H]3C[C@@H](OCc4ccccc4)CN3)cc(-n3cccc3)c2)n1` [1-25, N-((1R,2S)-1-((2R,4R)-4-(benzyloxy)pyrrolidin-2-yl)-1-hydroxy-3-phenylpropan-2-yl)-3-((R)-2-(4-methylthiazol-2-yl)pyrrolidine-1-carbonyl)-5-(1H-pyrrol-1-yl)benzamide], the inhibition constant (Ki) at memapsin 2 [1] is below 250 nM; at cathepsin D (read-out: CathD Ki), 48.8 nM; at cathepsin D (substrate peptide ELDLAVEFWHDR, pH 4.1, 37 degrees C, read-out: CD Ki), below 300 nM; on memapsin 1, 624 nM; on memapsin 1 (substrate peptide ELDLAVEFWHDR, pH 4.1, 37 degrees C), above 500 nM. Moreover, the IC50 on memapsin 2 [2] was below 500 nM.
